Converted amounts (≈) assume the structure as drawn. Where two headings read alike, the source gives them in different places.
What was measured:
Type in all cases: physicochemical
[1] = Solubility in aqueous buffers and simulated fluids, 24 h, HPLC; details: for solubility at 24 h: 22.5 °C, thermodynamic from solid, ~20-25° C., read-out: Measured Conc. (solubility); for solubility at 24 h / Measured Conc. (solubility): ~24 h; for Measured Conc. (solubility): LOQ: 0.1 μg/mL
Procedure: About 2 mg of test article was added to a 1.5 mL vials which contained ˜1.0 mL of one medium listed in Table 7 and Table 8, which was then sealed. The mixtures were stirred at ˜20-25° C. for ˜24 hours. After that, the mixture was filtered by 0.45 μm filter membrane and then the supernatant was analyzed by HPLC.

[2] = Accelerated stability testing (HPLC assay and purity); details: for Assay (%): assay criterion 95%-105%
Procedure: The stability of Phosphate Polymorphic Form and Free Base Polymorphic Form A were evaluated under accelerated conditions.
Appropriately 2 mg of compounds were accurately weighed into a glass vial, then added diluents (ACN/water, 50/50) and sonicated for 2 minutes to dilute the target concentration of 0.2 mg/mL. The solution was equilibrated to room temperature and then the purity of the compounds was determined by HPLC.

[3] = Intrinsic dissolution rate in SGF; details: 37° C., 100 rpm, linear scope within 2 to 120 min
Procedure: About 100 mg of Free Base Polymorphic Form A or Phosphate Polymorphic Form A was weighed into the intrinsic dissolution apparatus and the sample compressed for 1 minute with a compression force of ˜4 MPa to form a compacted pellet within the stainless-steel die. All loose powder was removed from the surface of the die. The intrinsic dissolution shaft was connected with the stainless-steel die and tightened so only one surface of the pellet was exposed (surface area=0.496 cm^2). The shaft in the spindle was adjusted to ensure the exposed surface of the compacted tablet was ˜3.8 cm from the bottom of the vessel when lowered. The temperature of chamber water was set at 37° C.±0.5° C., the shaft rotation at 100 rpm and the sampling time points at 2, 5, 10, 15, 30, 45, 60, 120 min. SGF was used as dissolution medium (900 mL). At each time point, solution samples were filtered, and the supernatant was analyzed by HPLC-UV.

[4] = pKa measurement by pH metric method; details: protonated TPA023B; titrated pH 2 to pH 12, extrapolated to aqueous pKa
Procedure: 10 mg of TPA023B was used for the pKa measurement.
ISA Water (Ionic Strength Adjusted Water, 0.15 M KCl): Accurately weigh 5.591 g KCl into a 500 mL volumetric flask, dissolve the sample with water, add to volume and mix well. Cosolvent of 60% (v/v) DMSO. Dissolve 2.795 g potassium chloride in 100 mL distilled or deionised water and make up to 250 mL with analytical grade DMSO (Ionic strength adjusted DMSO solution).
Cosolvent of 80% (v/v) MeOH: Dissolve 2.795 g potassium chloride in 50 mL distilled or deionized water and make up to 250 mL with analytical grade MeOH (Ionic strength adjusted MeOH solution).
pKa Determination by pH Metric Method (with or without Co-Solvent):
About 1 mg of sample was weighed into a sample vial, about 1.5 mL of ISA water or 1.5 mL of co-solvent (80% MeOH or 60% DMSO) was added into the vial automatically. The sample solution pre-acidified to pH 2.0 with 0.5 M HCl by the instrument automatically, then titrated three times with base to get pKa value from pH 2 to pH 12, and then extrapolated to get aqueous pKa value. Using this method, the pKa of TPA023B was determined to be 2.19.

[5] = HPLC analysis of degradation of TPA023B with acids in acetone (salt screening)
Procedure: Salt screening via reaction crystallization was preliminarily conducted using five acids in four solvents or solvent mixtures. […] For p-toluenesulfonic acid, about 20 mg of TPA023B and about 1.1 molar equivalents of the corresponding acid were stirred in about 0.5 mL of each solvent. For controls, about 20 mg of TPA023B was stirred in about 0.5 mL of the corresponding solvent. The resulting mixture was heated to about 50° C. with continuous stirring for about 4 hrs and slowly cooled to about 20-25° C. overnight.
HPLC analysis was conducted on the acetone samples to determine the extent of degradation that occurred, if any.

[6] = Approximate solubility of TPA023B in organic solvents; details: thermodynamic from solid; for solubility at 4 h: 25 °C, RT; for solubility: 50° C.
Procedure: About 25 mg of compound (TPA023B) was added to a 2.0 mL vial containing 0.5 mL of each organic solvent in Table 14, which was then sealed. The mixtures were stirred-mixed at 800 rpm, RT (25° C.) for 4 hours. After that, if the compound was not completely dissolved in the solvent, the mixture was then stirred-mixed at 800 rpm, 50° C. overnight. If the final mixture was clear solution, the solution would be evaporated by vacuum drying oven at 35° C. and the resulted solid would be checked by XRPD. If the final mixture was slurry, the slurry would be centrifuged at 14000 rpm for 5 minutes and then the residues would be dried by vacuum drying oven at 35° C. and checked by XRPD.

[7] = pH 3.0 citrate buffer (100 mM), initial pH 3.05
[8] = pH 4.5 citrate buffer (100 mM), initial pH 4.44
[9] = pH 7.4 PBS (50 mM), initial pH 7.40
[10] = pH 9.0 USP Buffer (50 mM), initial pH 8.94
[11] = organic solvent or mixture, 1,4-Dioxane
[12] = organic solvent or mixture, THF

Structure (SMILES): CC(C)(O)c1cnn2c(-c3ccc(F)c(-c4c(F)cccc4C#N)c3)cnc2n1 [Free Base Polymorphic Form A, 2′,6-difluoro-5′-[3-(1-hydroxy-1-methylethyl)-imidazo[1,2-b][1,2,4]triazin-7-yl]biphenyl-2-carbonitrile]
- solubility at 24 h ([1]; pH 1.8, simulated gastric fluid, SGF, initial pH 1.80): 0.00138 mg/mL (≈ 0.00353 mM)
- solubility at 24 h ([1]; simulated gastric fluid, pH 1.2 Hydrochloric Acid Buffer (50 mM), initial pH 1.17): 0.00977 mg/mL (≈ 0.025 mM)
- solubility at 24 h ([1]; FaSSIF, initial pH 6.51): 0.00211 mg/mL (≈ 0.00539 mM)
- solubility at 24 h ([1]; FeSSIF, initial pH 5.00): 0.00963 mg/mL (≈ 0.0246 mM)
- solubility at 24 h ([1]; Purified water, initial pH 7.02, target 2 mg/mL): 0.00014 mg/mL (≈ 0.000358 mM)
- pH value of supernatant ([1]; FaSSIF, initial pH 6.51): 6.50
- pH value of supernatant ([1]; FeSSIF, initial pH 5.00): 5.02
- pH value of supernatant ([1]; Purified water, initial pH 7.02): 8.73
- pH value of supernatant ([1]; SGF, initial pH 1.80): 1.86
- pH value of supernatant ([1]; pH 1.2 Hydrochloric Acid Buffer (50 mM), initial pH 1.17): 1.12
- pH value of supernatant [1, 7]: 3.00
- Measured Conc. (solubility) [1, 7]: <LOQ
- pH value of supernatant [1, 8]: 4.45
- Measured Conc. (solubility) [1, 8]: <LOQ
- pH value of supernatant [1, 9]: 7.42
- Measured Conc. (solubility) [1, 9]: <LOQ
- pH value of supernatant [1, 10]: 8.98
- Measured Conc. (solubility) [1, 10]: <LOQ
- Purity (%) ([2]; 40° C./75% RH (open), 1 week): 98.64%
- Assay (%) ([2]; 40° C./75% RH (open), 1 week): 102.35%
- Purity (%) ([2]; 80° C. (open), 1 week): 98.62%
- Assay (%) ([2]; 80° C. (open), 1 week): 101.60%
- Purity (%) ([2]; Initial): 98.72%
- Assay (%) ([2]; Initial): 105.51%
- Purity (%) ([2]; Light, ~50 h): 98.60%
- Assay (%) ([2]; Light, ~50 h): 104.28%
- intrinsic dissolution rate [3]: 5×10^−5 mg cm^2 min-t

Structure (SMILES): CC(C)(O)c1cnn2c(-c3ccc(F)c(-c4c(F)cccc4C#N)c3)cnc2n1 [TPA023B, 2′,6-difluoro-5′-[3-(1-hydroxy-1-methylethyl)-imidazo[1,2-b][1,2,4]triazin-7-yl]biphenyl-2-carbonitrile]
- pKa [4]: ~2.19
- Purity (%) ([5]; control in acetone, 50° C. about 4 hrs): 99.33%
- Purity (%) ([5]; with H2SO4 in acetone): 98.33%
- Purity (%) ([5]; with H3PO4 in acetone): 98.88%
- Purity (%) ([5]; with HCl in acetone): 98.61%
- Purity (%) ([5]; with methane sulfonic acid in acetone): 98.71%
- Purity (%) ([5]; with p-toluene sulfonic acid in acetone): 98.65%
- solubility at 4 h [6, 11]: < 50 mg/mL
- solubility at 4 h ([6]; organic solvent or mixture, DMF): > 50 mg/mL
- solubility at 4 h ([6]; organic solvent or mixture, DMSO): > 50 mg/mL
- solubility at 4 h [6, 12]: < 50 mg/mL
- solubility ([6]; aqueous with cosolvent or surfactant or cyclodextrin, Acetone/H2O (1/1, v/v)): < 50 mg/mL
- solubility ([6]; aqueous with cosolvent or surfactant or cyclodextrin, EtOH/H2O (1/1, v/v)): < 50 mg/mL
- solubility [6, 11]: > 50 mg/mL
- solubility ([6]; organic solvent or mixture, Acetone): < 50 mg/mL
- solubility ([6]; organic solvent or mixture, Acetonitrile (ACN)): < 50 mg/mL
- solubility ([6]; organic solvent or mixture, DCM): < 50 mg/mL
- solubility ([6]; organic solvent or mixture, EtOAc): < 50 mg/mL
- solubility ([6]; organic solvent or mixture, Ethanol): < 50 mg/mL
- solubility ([6]; organic solvent or mixture, Heptane): < 50 mg/mL
- solubility ([6]; organic solvent or mixture, Isopropanol): < 50 mg/mL
- solubility ([6]; organic solvent or mixture, MEK): < 50 mg/mL
- solubility ([6]; organic solvent or mixture, MTBE): < 50 mg/mL
- solubility ([6]; organic solvent or mixture, Methanol): < 50 mg/mL
- solubility [6, 12]: > 50 mg/mL
- solubility ([6]; organic solvent or mixture, Toluene): < 50 mg/mL
- solubility ([6]; water, H2O): < 50 mg/mL

— patent publication US11542263B2 (NeuroCycle Therapeutics, Inc., priority 2018, dated 2023)
